Laboratory results published in patent US20070031902A1, “Predictive Methods For Cancer Chemotherapy” (priority 2005, published 2007).
Entries after “also recorded” stand apart in the source; their conditions may differ.

How the values were obtained:
Format in all cases: cell-based, human
HIF-1α [1] = assay: IHC and image analysis of HIF-1α in Jurkat cells under DFO-induced hypoxia; settings: 50 μM DFO overnight vs vehicle
Description: (§1) These markers were evaluated by immunohistochemistry (“IHC”) and image analysis in the presence of Desferrioxarnine (“DFO”)-induced hypoxia, as well as in its absence, or normoxia. DFO is an iron-chelating agent known to induce hypoxia, and was used in these experiments as a model for hypoxia. All IHC analyses were carried out on either the BenchMark XT® or Discovery XT® (Ventana Medical Systems, Inc., Tucson Ariz. (“VMSI”)) staining platforms. Primary antibodies were obtained from commercial sources (See Table 1). Controls were vehicle treated. […] Primary antibodies were detected using the DABMapTM, OmniMapTM (Discovery XT®), or iViewTM DAB (BenchMark XT®) detection kit according to the manufacturer's instructions. […] Detection Kit detected specific mouse IgG, IgM and rabbit IgG antibodies bound to an antigen in paraffin-embedded or frozen tissue section. […] Staining intensities, percentage of reactive cells, and cellular localization were recorded. […] Slides were reviewed and scored by the pathologist prior to quantitation by optical imaging. For optical imaging, a digital application (VMSI) with image quantification based on the intensity (expressed as average optical density, or avg. OD) of the stain converted to a numerical score was utilized. […]

pAKT = assay: IHC and image analysis of pAKT under DFO-induced hypoxia; settings: Jurkat cells, 50 μM DFO overnight vs vehicle
Description: as §1

pERK (p44/p42) = assay: IHC and image analysis of pERK (p44/p42) under DFO-induced hypoxia; settings: 50 μM DFO overnight vs vehicle; negative in Jurkat cells, positive in HT1080 cells
Description: as §1

pTSC2 = assay: IHC and image analysis of pTSC2 under DFO-induced hypoxia; settings: Jurkat cells, 50 μM DFO overnight vs vehicle
Description: as §1

pMEK = assay: IHC and image analysis of pMEK under DFO-induced hypoxia; settings: Jurkat cells, 50 μM DFO overnight vs vehicle
Description: as §1

pS6 = assay: IHC and image analysis of pS6 under DFO-induced hypoxia; settings: Jurkat cells, 50 μM DFO overnight vs vehicle
Description: These markers were evaluated by immunohistochemistry (“IHC”) and image analysis in the presence of Desferrioxarnine (“DFO”)-induced hypoxia, as well as in its absence, or normoxia. DFO is an iron-chelating agent known to induce hypoxia, and was used in these experiments as a model for hypoxia. All IHC analyses were carried out on either the BenchMark XT® or Discovery XT® (Ventana Medical Systems, Inc., Tucson Ariz. (“VMSI”)) staining platforms. Primary antibodies were obtained from commercial sources (See Table 1). Controls were vehicle treated. […] Primary antibodies were detected using the DABMapTM, OmniMapTM (Discovery XT®), or iViewTM DAB (BenchMark XT®) detection kit according to the manufacturer's instructions. […] Detection Kit detected specific mouse IgG, IgM and rabbit IgG antibodies bound to an antigen in paraffin-embedded or frozen tissue section. […]

mTOR = assay: IHC and image analysis of mTOR under DFO-induced hypoxia; settings: 50 μM DFO overnight vs vehicle; consistently high
Description: as §1

pmTOR = assay: IHC and image analysis of pmTOR under DFO-induced hypoxia; settings: Jurkat cells, 50 μM DFO overnight vs vehicle
Description: as §1

p4EBP1 = assay: IHC and image analysis of p4EBP1 under DFO-induced hypoxia; settings: Jurkat cells, 50 μM DFO overnight vs vehicle
Description: as §1

HIF-1α [2] = assay: FACS of hypoxia-induced HIF-1α expression in Jurkat tumor cell line; settings: after treatment with DFO
Description: FIG. 6 illustrates the fluorescence-activated cell sorting (FACS) results of hypoxia-induced HIF-1α expression in a Jurkat tumor cell line. IHC was conducted and assessed according to the procedures detailed in Example 1. Western Blotting and FACS analysis were conducted using standard conditions.

HIF-1α [3] = assay: IHC and image analysis of HIF-1α in HT1080 cells (DFO, PX-478 dose escalation); settings: DFO vs vehicle

CC(=O)N(O)CCCCCNC(=O)CCC(=O)N(O)CCCCCNC(=O)CCC(=O)N(O)CCCCCN [DFO, desferrioxamine]
HIF-1α expression (IHC) (HIF-1α [1]): increase in expression; also recorded: increased expression
pAKT level of expression or activation (IHC) (pAKT): no change
level of pERK (IHC) (pERK (p44/p42)): No change
pTSC2 level of expression or activation (IHC) (pTSC2): no change
pMEK expression (IHC) (pMEK): decrease in expression
pS6 expression (IHC) (pS6): decrease in expression
level of mTOR (IHC) (mTOR): No change
pmTOR expression (IHC) (pmTOR): increase in expression
p4EBP1 expression (IHC) (p4EBP1): decrease in expression
HIF-1α (FACS) (HIF-1α [2]): increase in HIF-1α
HIF-1α expression (IHC) (HIF-1α [3]): increased expression
